Laboratory results as given in ChEMBL document CHEMBL2429836, “Theoretical studies, synthesis, and biological activity of 1-[(4-methylphenyl)sulfonyl]-5-oxo-2,3,4,5-tetrahydro-1H-1-benzazepine-4-carbonitrile (C9) as a non-peptide antagonist of the arginine vasopressin V1a and V2 receptors” (Med Chem Res, 2013).
Active and inactive are the calls of the source. The rule behind the calls is not given here. Numbered stars: 1 amine (or outer) side, 2 acyl side, 3 side chain; on linkers, the order of the positions; unused ones are H or OH. Bridge positions count the residues as written; N and C are the ends. Peptide text beside a SMILES is read from it. X1 = CC(C)(CC(=O)[*:1])S[*:2]

Experiments:
[1] = target: Vasopressin V1a receptor (Rattus norvegicus) (UniProt P30560); test: Antagonist activity at vasopressin V1a receptor in endothelium intact rat thoracic aorta assessed as inhibition of AVP-induced vascular smooth muscle contraction at 10 uM
[2] = target: Vasopressin V1a receptor (Rattus norvegicus) (UniProt P30560); test: Antagonist activity at vasopressin V1a receptor in endothelium-denuded rat thoracic aorta assessed as inhibition of AVP-induced vascular smooth muscle contraction at 10 uM
[3] = target: Vasopressin V1a receptor (Rattus norvegicus) (UniProt P30560); test: Antagonist activity at vasopressin V1a receptor in rat thoracic aorta assessed as inhibition of AVP-induced vascular smooth muscle contraction at 59 uM; assay type: tissue-based
[4] = target: Vasopressin V1a receptor (Rattus norvegicus) (UniProt P30560); test: Antagonist activity at vasopressin V1a receptor in rat thoracic aorta assessed as inhibition of AVP-induced vascular smooth muscle contraction at 5.9 uM; assay type: tissue-based
[5] = target: Vasopressin V1a receptor (Rattus norvegicus) (UniProt P30560); test: Antagonist activity at vasopressin V1a receptor in rat thoracic aorta assessed as inhibition of AVP-induced vascular smooth muscle contraction at 590 uM; assay type: tissue-based
[6] = target: Vasopressin V1a receptor (Rattus norvegicus) (UniProt P30560); test: Antagonist activity at vasopressin V1a receptor in rat thoracic aorta assessed as inhibition of AVP-induced vascular smooth muscle contraction; assay type: tissue-based
Rattus norvegicus = test: Antidiuretic acitivity in water-loaded Wistar rat assessed as inhibition of AVP-mediated decrease in urine flow at 100 ug/kg, iv; assay type: functional, organism-based

Chain of Vasopressin V1a receptor (Rattus norvegicus) (P30560 whole entry, looked up): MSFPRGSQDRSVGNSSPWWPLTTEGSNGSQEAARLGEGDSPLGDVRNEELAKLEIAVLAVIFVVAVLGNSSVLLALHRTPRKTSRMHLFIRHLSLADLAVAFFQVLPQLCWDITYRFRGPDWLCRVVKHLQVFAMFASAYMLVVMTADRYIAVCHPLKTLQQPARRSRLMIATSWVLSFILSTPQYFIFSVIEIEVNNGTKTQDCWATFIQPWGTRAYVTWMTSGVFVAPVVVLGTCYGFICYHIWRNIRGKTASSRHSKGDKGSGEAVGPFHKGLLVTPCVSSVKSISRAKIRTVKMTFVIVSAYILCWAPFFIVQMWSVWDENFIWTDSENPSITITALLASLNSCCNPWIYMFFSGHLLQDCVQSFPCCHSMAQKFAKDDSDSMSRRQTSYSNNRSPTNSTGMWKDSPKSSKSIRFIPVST

SMILES | inhibition [1] | inhibition [2] | inhibition [3] [%] | inhibition [4] [%] | inhibition [5] | inhibition [6] | inhibition (Rattus norvegicus)
COc1ccc(C[C@@H]2NC(=O)CC(C)(C)SSC[C@@H](C(=O)N3CCC[C@H]3C(=O)N[C@@H](CCCN=C(N)N)C(=O)NCC(N)=O)NC(=O)[C@H](CC(N)=O)NC(=O)[C@H](CCC(N)=O)NC(=O)[C@H](Cc3ccccc3)NC2=O)cc1 (Y(Me)FQNCPRG-NH2; linker N-5 via X1) | Active | Active | – | – | – | – | –
Cc1ccc(S(=O)(=O)N2CCC(C#N)C(=O)c3ccccc32)cc1 (configuration not stated) | – | – | 70 | 25 | Active | Dose-dependent effect | Active
